Key:
[1] = tested on: HL-60; test: Cell proliferation assay (MTT/MTS); settings: Homo sapiens, HL-60, read-out: IC50 ± SEM
Description: (§1) All cell lines were authenticated by short tandem repeat analysis and maintained following the ATCC instructions. […] Anti-proliferation activity was analyzed using the 3-(4,5-dimethylthiazole-2-yl)-2,5-diphenyl-2H-tetrazolium bromide (MTT) or (3-(4,5-dimethylthiazol-2-yl)-5-(3-carboxymethoxyphenyl)-2 -(4-sulfophenyl)-2H-tetrazolium) (MTS) assay.
(§2) A375, HT-29 and Calu-6 cell lines were purchased from the typical culture preservation commission cell bank of the Chinese Academy of Sciences in China. […] H358 cell line was obtained from EK-bioscience. Cells were seeded into 96-well plates at an appropriate density, and 24 h later, diluted drug in different concentrations was added to each test well in triplicate. The cell viability was tested 5 days (H358 was analyzed for 7 days) after the cells were plated according to the procedure originally described by Mosmann [1]. Survival rate was calculated using the formula: Survival rate = (Mean absorbance of experimental wells-Mean absorbance of DMSO wells) / (Mean absorbance of control wells-Mean absorbance of DMSO wells) × 100%. IC50 was determined from the regression of a plot of the logarithm of the concentration versus survival rate by GraphPad Prism 6 using the non-linear regression Dose–Response Inhibition (four parameters) Model.

[2] = tested on: H1975; test: Cell proliferation assay (MTT/MTS); settings: Homo sapiens, NCI-H1975, read-out: IC50 ± SEM
Description: as §1, §2

[3] = tested on: MRC-5; test: Cell proliferation assay (MTT/MTS); settings: Homo sapiens, MRC5, read-out: IC50 ± SEM
Description: as §1, §2

[4] = tested on: A375 cells; test: Apoptosis assay by flow cytometry; settings: 48 h
Description: (§3) Cell lines were inoculated at the density of 2×10^4 cells per well in a 6-well plate and cultured overnight. […] The cell cycle or apoptosis analysis was performed by flow cytometry.
(§4) Tumor cell lines were inoculated in 6-well plates at a density of 2×10^4 cells/well. […] Both apoptosis and cell cycle were measured by flow cytometry (Accuri C6, BD biosciences).

[5] = tested on: A375; test: Cell proliferation assay (MTT/MTS); settings: Homo sapiens, A-375, read-out: IC50 ± SEM
Description: as §1, §2

[6] = tested on: COLO 205 cells; test: Apoptosis assay by flow cytometry; settings: 48 h, control 21.9%
Description: as §3, §4

[7] = tested on: HT-29; test: Cell proliferation assay (MTT/MTS); settings: Homo sapiens, HT-29, read-out: IC50 ± SEM
Description: as §1
(§5) Cells were seeded into 96-well plates at an appropriate density, and 24 h later, diluted drug in different concentrations was added to each test well in triplicate. The cell viability was tested 5 days (H358 was analyzed for 7 days) after the cells were plated according to the procedure originally described by Mosmann [1]. Survival rate was calculated using the formula: Survival rate = (Mean absorbance of experimental wells-Mean absorbance of DMSO wells) / (Mean absorbance of control wells-Mean absorbance of DMSO wells) × 100%. IC50 was determined from the regression of a plot of the logarithm of the concentration versus survival rate by GraphPad Prism 6 using the non-linear regression Dose–Response Inhibition (four parameters) Model.

[8] = tested on: A549; test: Cell proliferation assay (MTT/MTS); settings: Homo sapiens, A549, read-out: IC50 ± SEM
Description: as §1, §5

[9] = tested on: Colo-829; test: Cell proliferation assay (MTT/MTS); settings: Homo sapiens, COLO-829, read-out: IC50 ± SEM
Description: as §1, §5

[10] = tested on: COLO 205; test: Cell proliferation assay (MTT/MTS); settings: Homo sapiens, COLO 205, read-out: IC50 ± SEM
Description: as §1, §2

[11] = tested on: Calu-6; test: Cell proliferation assay (MTT/MTS); settings: Homo sapiens, Calu-6, read-out: IC50 ± SEM
Description: as §1, §5

[12] = tested on: hERG channel; set-up: method as in Food and Drug Administration, 2015; settings: ref Food and Drug Administration, 2015; cited from earlier work
[13] = set-up: method as in Infante et al., 2012; settings: requires DMSO as co-solvate; ref Infante et al., 2012; cited from earlier work
[14] = cited from earlier work
[15] = biological target: MEK1/MAP2K1(h) (Homo sapiens, UniProt Q02750); test: MEK1 inhibition, comparison of tunlametinib and MEK162 (Caliper EZ Reader)
Sequence of MEK1/MAP2K1(h) (Q02750 whole entry): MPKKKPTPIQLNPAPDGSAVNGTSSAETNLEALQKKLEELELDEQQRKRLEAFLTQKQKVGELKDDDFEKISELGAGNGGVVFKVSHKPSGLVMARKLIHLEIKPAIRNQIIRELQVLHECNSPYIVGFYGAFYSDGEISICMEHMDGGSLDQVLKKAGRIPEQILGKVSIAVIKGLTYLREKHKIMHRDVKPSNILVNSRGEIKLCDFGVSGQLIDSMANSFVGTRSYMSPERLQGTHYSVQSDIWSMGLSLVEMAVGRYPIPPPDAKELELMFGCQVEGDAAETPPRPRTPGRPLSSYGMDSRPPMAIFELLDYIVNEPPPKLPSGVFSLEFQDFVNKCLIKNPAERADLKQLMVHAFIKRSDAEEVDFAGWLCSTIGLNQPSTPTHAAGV
Description: Kinase inhibition activity against MEK1 was conducted in Cerep (France) and Sundia (Shanghai, China).
The signals were measured using Caliper EZ Reader and the data were analyzed.

[16] = biological target: MEK2 kinase; set-up: method as in Iverson et al., 2009; settings: ref Iverson et al., 2009; cited from earlier work
[17] = biological target: MEK1 kinase; set-up: method as in Iverson et al., 2009; settings: ref Iverson et al., 2009; cited from earlier work

IC50 [1] [nM]	IC50 [2] [nM]	IC50 [5] [nM]	IC50 [7] [nM]	IC50 [8] [nM]	IC50 [9] [nM]	IC50 [10] [nM]	IC50 [11] [nM]	Structure (SMILES)	IC50 [3] [nM]	apoptosis-inducing effect [4]	also measured
35.3 ± 20.9	> 50000	67.52 ± 0.07	175 ± 19.3	5730 ± 1030	301 ± 88.8	54.3 ± 2.21	2310 ± 204	Cn1cnc2c(F)c(Nc3ccc(Br)cc3Cl)c(C(=O)NOCCO)cc21 [AZD6244, selumetinib]	> 50000	no significant apoptosis-inducing effect	apoptosis rate ([6]; 1 μM): 40.6%
								O=C(c1ccc(F)c(F)c1Nc1ccc(I)cc1F)N1CC(O)([C@@H]2CCCCN2)C1 [Cobimetinib, cobimetinib]			IC50 [12]: 500 nM
0.6 ± 0.28	> 1000	0.74 ± 0.01	1.45 ± 0.2	45.4 ± 4.76	1.78	0.74 ± 0.02	10.56 ± 0.07	CC(=O)Nc1cccc(-n2c(=O)n(C3CC3)c(=O)c3c(Nc4ccc(I)cc4F)n(C)c(=O)c(C)c32)c1 [GSK212, trametinib]	> 1000	no significant apoptosis-inducing effect	solubility property [13]: poor solubility; drug accumulation ([14]; ref Infante et al., 2012): ~6 fold; mean accumulation ratio (day15/day1) ([14]; repeat dose of 2 mg, ref Food and Drug Administration, 2013): ~6.0; apoptosis rate ([6]; 20 nM): 47.0%
								Cn1cnc2c(F)c(Nc3ccc(Br)cc3F)c(C(=O)NOCCO)cc21 [MEK162, binimetinib]			IC50 [15]: 224 ± 16.9 nM
								COc1cc(F)c(F)c(Nc2ccc(I)cc2F)c1NS(=O)(=O)C1(C[C@H](O)CO)CC1 [REDA119]			IC50 [16]: 47 nM; IC50 [17]: 19 nM

Source: PMC10557067, “Preclinical characterization of tunlametinib, a novel, potent, and selective MEK inhibitor” (Frontiers in Pharmacology, 2023)
